For 20 compounds, response vs control in vivo and activity results are on record in patent US6235731A, “Fused imidazopyridine derivatives as antihyperlipidemic agents” (Takeda Chemical Industries, Ltd., priority 1996, dated 2001).

The subject of one test is Golden Syrian hamsters. Nature of the test: Cholesterol lowering activity in Golden hamster. Conditions: Mesocricetus auratus, po, 96 h, 20 mg/kg/d orally, once daily for 4 days. Type of test: in vivo, Golden Syrian hamster. The protocol:
Cholesterol lowering activity in Golden hamster Male Golden Syrian hamsters (110-130 g) were maintained freely on water and a laboratory diet (CE-2, Clea Japan Inc., Tokyo). […] Blood was taken from orbital sinus and plasma total cholesterol and triglyceride were measured an automatic analyzer (Hitachi 7070, Hitachi Ltd., Tokyo) using commercial kits (Wako Pure Chemical Industries, Osaka), and plasma HDL-cholesterol using a commercial kit (Kyowa Medex Co., Ltd., Tokyo) before and after the treatment of compound. Non-HDL cholesterol was calculated by subtracting HDL-cholesterol from total cholesterol. |Non-HDL-C (non-HDL-cholesterol): [total cholesterol]-[HDL-cholesterol] |TG: triglyceride

A further test has as its system HepG2 cells. Nature of the test: Increase in LDL-binding to HepG2 cells. Type of test: cell-based. Conditions: 10 μM test compound, 20 hours, specific human [125I]LDL binding, normalized by protein, read-out: LDL binding (% of control). The protocol:
Increase in LDL-binding to HepG2 cells LDL-binding was measured according to the method of J. L. Goldstein. HepG2 cells were purchased from ATCC (American type culture collection) and seeded in 6-well plate with collagen coating (Sumitomo Bakelite), and cultured in Eagle's minimum essential medium (MEM) containing 10%-fetal bovine serum at 37° C. for 4 days. […] After washing with phosphate buffered saline cells were incubated with MEM containing 25 mM-HEPES and 1%-bovine serum albumin (fatty acid free) in the presence of human [^125 I]LDL (4 μg/ml) at 6° C. for 2 hours. After washing cells bound [^125 I]LDL was dissociated with dextran sulfate and the radioactivity was measured (total binding). [^125 I]LDL binding to cells was also measured in the presence of LDL (300 μg/ml) as a non-specific binding (NSB). Specific [^125 I]LDL-binding was calculated by subtracting NSB from total binding and was normalized by protein content measured by the method of lowry. Data was expressed as percentage of the control.

Setting [1] is: plasma triglyceride, read-out: TG (% of control).
Where [2] appears, read: plasma, [total cholesterol]-[HDL-cholesterol], read-out: Non-HDL-C (% of control).

Structures can show the parent of a compound that is named as a salt. Where two headings read alike, the source gives them in different places.

With `O=C(NCC1CCN(C[C@@H]2COc3ccccc3O2)CC1)C1=Cc2cnc3cccc(n23)S1` [Example 1, (R)-N-[1-(1,4-benzodioxan-2-ylmethyl)piperidin-4-ylmethyl]-5-thia-1,8b-diazaacenaphthylene-4-carboxamide dihydrochloride], the response vs control in vivo at 20 mg/kg is 78.4% in the test with Golden Syrian hamsters (setting [1]) and 68.6% in the test with Golden Syrian hamsters (setting [2]). In addition, the activity at 10 µM in the test with HepG2 cells was determined as 203%.

For the compound `O=C(NCC1CCN(C[C@H]2COc3ccccc3O2)CC1)C1=Cc2cnc3cccc(n23)S1` [Example 2, (S)-N-[1-(1,4-benzodioxan-2-ylmethyl)piperidin-4-ylmethyl]-5-thia-1,8b-diazaacenaphthylene-4-carboxamide], the response vs control in vivo at 20 mg/kg is 102% with Golden Syrian hamsters (setting [1]) and 65.1% with Golden Syrian hamsters (setting [2]). Also, the activity at 10 µM in the test on HepG2 cells is 172%.

For the compound `O=C(NCC1CCN(CC2COc3ccccc3O2)CC1)C1=Cc2cnc3cccc(n23)S1` (centres unmarked) [Example 3, N-[1-(1,4-benzodioxan-2-ylmethyl)piperidin-4-ylmethyl]-5-thia-1,8b-diazaacenaphthylene-4-carboxamide dihydrochloride], the response vs control in vivo at 20 mg/kg with Golden Syrian hamsters (setting [1]) came to 91.3%; with Golden Syrian hamsters (setting [2]), 69.5%. Further, the activity at 10 µM in the test with HepG2 cells stood at 194%.

`O=C(C=CC1=Cc2cnc3cccc(n23)S1)NCC1CCN(CCCc2ccccc2)CC1` [Example 9, N-[1-(3-phenylpropan-1-yl)piperidin-4-ylmethyl]-3-(5-thia-1,8b-diazaacenaphthylen-4-yl)acrylamide dihydrochloride]: the values for the response vs control in vivo at 20 mg/kg in the test with Golden Syrian hamsters (setting [1]) and in the test with Golden Syrian hamsters (setting [2]) were 67% and 62.3%, respectively. In addition, in the test with HepG2 cells, the activity at 10 µM was determined as 247%.

Turning to `O=C(C=CC1=Cc2cnc3cccc(n23)S1)NC1CCN(CCCc2ccccc2)CC1` [Example 10, N-[1-(3-phenylpropan-1-yl)piperidin-4-yl]-3-(5-thia-1,8b-diazaacenaphthylen-4-yl)acrylamide dihydrochloride], the figures for the response vs control in vivo at 20 mg/kg in the test with Golden Syrian hamsters (setting [1]) and with Golden Syrian hamsters (setting [2]) were 70.8% and 61%, respectively. Moreover, the activity at 10 µM with HepG2 cells was determined as 169%.

As for `O=C(NCCCCN1CCC(c2ccccc2)CC1)C1=Cc2cnc3cccc(n23)S1` [Example 26, N-[4-(4-phenylpiperidin-1-yl)butan-1-yl]-5-thia-1,8b-diazaacenaphthylene-4-carboxamide Dihydrochloride], the response vs control in vivo at 20 mg/kg amounted to 82% with Golden Syrian hamsters (setting [1]) and 66.4% in the test on Golden Syrian hamsters (setting [2]). In addition, the activity at 10 µM in the test on HepG2 cells was 189%.

On to `O=C(NCCCN1CCC(Cc2ccccc2)CC1)C1=Cc2cnc3cccc(n23)S1` [Example 29, N-[3-(4-benzylpiperidin-1-yl)propan-1-yl]-5-thia-1,8b-diazaacenaphthylene-4-carboxamide Dihydrochloride], for which the values for the response vs control in vivo at 20 mg/kg in the test with Golden Syrian hamsters (setting [1]) and with Golden Syrian hamsters (setting [2]) were 73.9% and 68.1%, respectively.

In the case of `O=C(NCCCCN1CCN(Cc2ccccc2)CC1)C1=Cc2cnc3cccc(n23)S1` [Example 32, N-[4-(4-benzyl-1-piperazinyl)butan-1-yl]-5-thia-1,8b-diazaacenaphthylene-4-carboxamide Trihydrochloride], the response vs control in vivo at 20 mg/kg in the test on Golden Syrian hamsters (setting [1]) is 76.5%; with Golden Syrian hamsters (setting [2]) it was 76.6%.

As for `O=C(NCCCN1CCN(Cc2ccccc2)CC1)C1=Cc2cnc3cccc(n23)S1` [Example 33, N-[3-(4-benzyl-1-piperazinyl)propan-1-yl]-5-thia-1,8b-diazaacenaphthylene-4-carboxamide Trihydrochloride], the response vs control in vivo at 20 mg/kg in the test on Golden Syrian hamsters (setting [1]) was 85.6%; with Golden Syrian hamsters (setting [2]), 77.1%.

Take `O=C(NCCCCN1CCc2ccccc2C1)C1=Cc2cnc3cccc(n23)S1` [Example 34, N-[4-(1,2,3,4-tetrahydroisoquinolin-2-yl)butan-1-yl]-5-thia-1,8b-diazaacenaphthylene-4-carboxamide Dihydrochloride]: the response vs control in vivo at 20 mg/kg turned out to be 74.7% in the test with Golden Syrian hamsters (setting [1]) and 72.2% in the test with Golden Syrian hamsters (setting [2]).

`O=C(NC1CCN(CCCc2ccccc2Cl)CC1)C1=Cc2cnc3cccc(n23)S1` [Example 39, N-[1-[3-(2-chlorophenyl)propan-1-yl]piperidin-4-yl]-5-thia-1,8b-diazaacenaphthylene-4-carboxamide dihydrochloride]: the response vs control in vivo at 20 mg/kg with Golden Syrian hamsters (setting [1]) was 62.6%; in the test with Golden Syrian hamsters (setting [2]), 62.7%.

Consider `O=C(C1=Cc2cnc3cccc(n23)S1)N(Cc1ccccc1)CC1CCN(CCCc2ccccc2)CC1` [Example 52, N-benzyl-N-[1-(3-phenylpropan-1-yl)piperidin-4-ylmethyl]-5-thia-1,8b-diazaacenaphthylene Dihydrochloride], for which the activity at 10 µM in the test with HepG2 cells came out at 183%.

Take `O=C(NCCN1CCN(CCCc2ccccc2)CC1)C1=Cc2cnc3cccc(n23)S1` [Example 58, N-[2-(4-(3-phenylpropan-1-yl)piperazin-1-yl)ethan-1-yl]-5-thia-1,8b-diazaacenaphthylene-4-carboxamide Trihydrochloride]: the values for the response vs control in vivo at 20 mg/kg with Golden Syrian hamsters (setting [1]) and in the test on Golden Syrian hamsters (setting [2]) were 71.2% and 74%, respectively.

Turning to `O=C(NCC1CCN(CCc2ccccc2F)CC1)C1=Cc2cnc3cccc(n23)S1` [Example 68, N-[1-(2-fluorophenethyl)piperidin-4-ylmethyl]-5-thia-1,8b-diazaacenaphthylene-4-carboxamide Dihydrochloride], the response vs control in vivo at 20 mg/kg in the test with Golden Syrian hamsters (setting [1]) is 74.3%; in the test with Golden Syrian hamsters (setting [2]), 58.5%.

Consider `O=C(NCC1CCN(CCc2ccc(F)cc2)CC1)C1=Cc2cnc3cccc(n23)S1` [Example 70, N-[1-(4-fluorophenethyl)piperidin-4-ylmethyl]-5-thia-1,8b-diazaacenaphthylene-4-carboxamide Dihydrochloride], for which the response vs control in vivo at 20 mg/kg came out at 71.2% with Golden Syrian hamsters (setting [1]) and 47.9% in the test with Golden Syrian hamsters (setting [2]).

As for `O=C(NCC1CCN(CCCc2cccc(F)c2)CC1)C1=Cc2cnc3cccc(n23)S1` [Example 74, N-[1-(3-(3-fluorophenyl)propan-1-yl)piperidin-4-ylmethyl]-5-thia-1,8b-diazaacenaphthylene-4-carboxamide Dihydrochloride], the response vs control in vivo at 20 mg/kg in the test on Golden Syrian hamsters (setting [1]) is 67.9%; with Golden Syrian hamsters (setting [2]), 73.5%.

Consider `O=C(NCC1CCN(CCCc2ccccc2Cl)CC1)C1=Cc2cnc3cccc(n23)S1` [Example 77, N-[1-(3-(2-chlorophenyl)propan-1-yl)piperidin-4-ylmethyl]-5-thia-1,8b-diazaacenaphthylene-4-carboxamide Dihydrochloride], for which the activity at 10 µM in the test with HepG2 cells was determined as 168%.

Regarding `COc1ccccc1CCCN1CCC(CNC(=O)C2=Cc3cnc4cccc(n34)S2)CC1` [Example 80, N-[1-(3-(2-methoxyphenyl)propan-1-yl)piperidin-4-ylmethyl]-5-thia-1,8b-diazaacenaphthylene-4-carboxamide Dihydrochloride], the activity at 10 µM in the test on HepG2 cells is 248%.

For `O=C(NCC1CCN(CCCOc2ccc(F)cc2)CC1)C1=Cc2cnc3cccc(n23)S1` [Example 113, N-[1-(3-(4-fluorophenoxy)propan-1-yl)piperidin-4-ylmethyl]-5-thia-1,8b-diazaacenaphthylene-4-carboxamide Dihydrochloride], the activity at 10 µM in the test with HepG2 cells amounted to 140%.

As to `O=C(NCC1CCN(CCCOc2ccc(F)cc2F)CC1)C1=Cc2cnc3cccc(n23)S1` [Example 117, N-[1-(3-(2,4-difluorophenoxy)propan-1-yl)piperidin-4-ylmethyl]-5-thia-1,8b-diazaacenaphthylene-4-carboxamide Dihydrochloride], the activity at 10 µM in the test with HepG2 cells was 137%.
